Experimental data taken from patent publication US20230357266A1, “PHOTOA[…] AND USES THEREOF” (priority 2022, published 2023).

Tests used:
[1] = comparator value for simple phenyl-azide; cited from earlier work
[2] = biological target: T1, acetylated BSA (Bos taurus, UniProt P02769); assay: Light-induced covalent labeling of model protein (slot blot, anti-biotin detection), with or without iridium catalyst Ir-9049; type: biochemical; settings: 50 μM probe, 0.8 μM acetylated BSA, no catalyst, 20 minutes at 365 nm or 455 nm
T1 construct: purchased Promega
Description: The capacity of these vinyl-extended aryl-azide-based photoreactive groups to undergo activation by either UV or visible 455 nm light in the presence or absence of a catalyst for subsequent covalent crosslinking with neighboring proteins was further evaluated through labeling efficiency of a model protein (FIGS. 4 and 5). […] Plates remained in the dark (control) or irradiated using Efficiency Aggregators biophotoreactor for 20 minutes at either 365 nm (100% UV=^˜80 W) or 455 nm (100%=^˜80 W or 2% 2 W). To evaluate subsequent covalent labeling efficiencies, reactions were subjected to Zeba column clean-up (ThermoFisher) to remove non-crosslinked vinyl-extended-aryl-azide-biotin probes and then spotted on nitrocellulose membranes using a slot blot apparatus. Membranes were then blocked with 5% BSA (Promega) in TBST for 1 hour at room temperature and subsequently incubated overnight at 4° C. with anti-biotin antibody (Invitrogen) in TBST. The next day membranes were washed 3 times with TBST and then incubated for an hour with a secondary anti-goat-HRP-antibody (Jackson laboratories). Following three washes in TBST, membranes were treated with ECL substrate (Promega) and scanned on the chemiluminescence channel to detect BSA labeled with biotin. […]

T1 sequence (P02769 25-607): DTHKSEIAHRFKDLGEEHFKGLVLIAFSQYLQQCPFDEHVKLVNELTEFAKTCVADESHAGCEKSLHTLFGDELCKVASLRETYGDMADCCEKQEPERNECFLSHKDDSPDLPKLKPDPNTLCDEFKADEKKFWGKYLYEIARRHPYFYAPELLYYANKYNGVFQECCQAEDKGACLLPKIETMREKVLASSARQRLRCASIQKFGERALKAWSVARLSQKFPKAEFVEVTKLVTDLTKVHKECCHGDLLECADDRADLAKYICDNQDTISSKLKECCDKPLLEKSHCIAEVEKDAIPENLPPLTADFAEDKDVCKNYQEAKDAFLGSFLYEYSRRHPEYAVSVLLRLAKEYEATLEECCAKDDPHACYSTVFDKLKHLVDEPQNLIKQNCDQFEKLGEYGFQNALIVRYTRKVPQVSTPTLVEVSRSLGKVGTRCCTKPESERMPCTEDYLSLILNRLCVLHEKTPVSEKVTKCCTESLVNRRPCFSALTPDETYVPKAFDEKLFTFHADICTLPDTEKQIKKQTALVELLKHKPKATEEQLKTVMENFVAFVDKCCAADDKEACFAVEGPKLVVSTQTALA

Compound: [N-]=[N+]=Nc1ccccc1 [phenyl-azide]
- λmax [1]: ~260 nm

Compound: C/C(=C\C(=O)NCCOCCOCCOCCOCCNC(=O)CCCC[C@@H]1SC[C@@H]2NC(=O)N[C@@H]21)c1ccc2cc(N=[N+]=[N-])c(C#N)cc2c1 [Compound 9616]
- UV versus 455 nm activation efficiencies (quantitated band volumes) [2]: greater 455 nm activation efficiencies

Compound: C/C(=C\C(=O)NCCOCCOCCOCCOCCNC(=O)CCCC[C@@H]1SC[C@@H]2NC(=O)N[C@@H]21)c1ccc2cc(N=[N+]=[N-])ccc2c1 [Compound 9582]
- UV versus 455 nm activation efficiencies (quantitated band volumes) [2]: greater 455 nm activation efficiencies
